Experimental findings from ChEMBL document CHEMBL5247581, “Design, synthesis and biological evaluation of new quinazolinone-benzopyran-indole hybrid compounds promoting osteogenesis through BMP2 upregulation” (Eur J Med Chem, 2022) are described below.

Active and inactive are the calls of the source. The calls are words filed in the database; no cut-off is given here.

Data set [1] concerns Calvarial osteoblast. Kind of data set: Induction of osteogenesis in mouse Osteoblast cells assessed as ALP activity at 0.001 to 100 uM measured for 24 to 48 hrs. Type of data set: functional. Conditions: dose 0.001-100 µM, time 24-48 hrs.
Data set [2] relates to Calvarial osteoblast. Nature of the data set: Induction of osteogenesis in mouse Osteoblast cells assessed as ALP activity at 1 to 1000 pM measured for 24 to 48 hrs. The class given is functional, cell-based. Conditions: dose 1-1000 pM, time 24-48 hrs.
Data set [3] concerns Calvarial osteoblast. Nature of the data set: Induction of osteogenesis in mouse Osteoblast cells assessed as ALP activity at 10 nM measured for 24 to 48 hrs. The class given is functional, cell-based. Conditions: time 24-48 hrs.
Data set [4] concerns Calvarial osteoblast. Kind of data set: Induction of osteogenesis in mouse Osteoblast cells assessed as ALP activity at 0.001 to 100 uM measured for 48 hrs. Particulars: dose 0.001-100 µM. The class given is functional, cell-based.
The subject of data set [5] is Calvarial osteoblast. Nature of the data set: Induction of osteogenesis in mouse Osteoblast cells assessed as ALP activity at 0.001 to 100 uM measured for 24 hrs. The class given is functional, cell-based. Particulars: dose 0.001-100 µM.
Data set [6] has as its system Calvarial osteoblast. Kind of data set: Induction of osteogenesis in mouse Osteoblast cells assessed as ALP activity at 100 pM measured for 48 hrs. The class given is functional, cell-based.
Data set [7] has as its system Calvarial osteoblast. Kind of data set: Cytotoxicity against mouse Osteoblast cells assessed as reduction in cell viability at 0.000001 to 1 uM measured for 24 to 48 hrs by MTT assay. Type of data set: toxicity, cell-based. Particulars: dose lower 1e-06 µM, time lower 24 hrs, dose upper 1 µM, time upper 48 hrs. (Tetrazolium assays rely on reduction of a dye to a coloured formazan, in cell work by metabolically active cells.)

Data set [8] relates to Calvarial osteoblast. Nature of the data set: Cytotoxicity against mouse Osteoblast cells assessed as reduction in cell viability at 100 uM measured for 24 to 48 hrs by MTT assay. Type of data set: toxicity, cell-based. Particulars: time 24-48 hrs.
The subject of data set [9] is Calvarial osteoblast. Nature of the data set: Induction of osteoblast differentiation in mouse calvarial osteoblasts cells assessed as ALP activity at 1 to 10000 pM measured for 7 days. The class given is functional, cell-based. Conditions: dose 1-10000 pM, time 7.0 day.
Data set [10] concerns Calvarial osteoblast. Kind of data set: Induction of osteogenesis in mouse Osteoblast cells assessed as ALP activity at 100 to 1000000 pM measured for 24 to 48 hrs. The class given is functional, cell-based. Particulars: dose 100-1e+06 pM, time 24-48 hrs.
The test system of data set [11] is Calvarial osteoblast. Nature of the data set: Induction of osteogenesis in mouse Osteoblast cells assessed as ALP activity at 10 nM measured for 48 hrs. Type of data set: functional, cell-based.
Data set [12] concerns Calvarial osteoblast. Kind of data set: Induction of osteoblast differentiation in mouse calvarial osteoblasts cells assessed as ALP activity at 100 to 10000 pM measured for 7 days. Particulars: dose 100-10000 pM, time 7.0 day. Type of data set: functional, cell-based.
The nature of data set [13]: Induction of osteoblast mineralization in mouse Bone marrow cells assessed as increase in mineralized nodule formation at 10 nM replaced with media every 48 hrs for 21 days by Alizarin Red staining-based microscopic analysis. The class given is functional, Bone marrow cell. Particulars: time 21 day.
A short description of data set [14]: Induction of osteoblast mineralization in mouse Bone marrow cells assessed as increase in mineralized nodule formation at 100 pM replaced with media every 48 hrs for 21 days by Alizarin Red staining-based microscopic analysis. Type of data set: functional, Bone marrow cell. Conditions: time 21 day.
Data set [15] concerns Calvarial osteoblast. Nature of the data set: Induction of osteogenesis in mouse Osteoblast cells assessed as fold increase in RUNX2 gene expression at 100 to 10000 pM by qRT-PCR analysis. Type of data set: functional. Particulars: dose 100-10000 pM.

For the compound `Cc1[nH]c2ccccc2c1C1C(C#N)=C(N)Oc2c1cc(-c1nc3ccccc3c(=O)[nH]1)cc2C(C)(C)C` (configuration not stated), the outcome in data set [1] was inactive.

In the case of `Cc1[nH]c2ccc(Cl)cc2c1C1C(C#N)=C(N)Oc2c1cc(-c1nc3ccccc3c(=O)n1C)cc2C(C)(C)C` (configuration not stated), the Activity in data set [1] is given as 7%.

For `Cc1[nH]c2ccccc2c1C1C(C#N)=C(N)Oc2ccccc21` (configuration not stated), the result in data set [1], in [2] and in [3] was inactive.

Regarding `CCc1cc(-c2nc3ccccc3c(=O)n2CC)cc2c1OC(N)=C(C#N)C2c1c(C)[nH]c2ccccc12` (configuration not stated), the values for the Activity in data set [1], in data set [7] and in data set [8] were 38%, “Non-Toxic” and “Toxic”, respectively. Besides, the result in data set [4] and in [6] was Active. Also, the result in data set [5] and in data set [9] was inactive.

As to `CCn1c(-c2cc(C(C)C)c3c(c2)C(c2c(C)[nH]c4ccccc24)C(C#N)=C(N)O3)nc2ccccc2c1=O` (configuration not stated), the Activity in data set [1] is recorded as 6%.

As to `Cc1cc2ccccc2[nH]1`, the outcome in data set [1], in [10], in [2] and in data set [3] was inactive.

On to `CCCc1cc(-c2nc3ccccc3c(=O)n2C)cc2c1OC(N)=C(C#N)C2c1c(C)[nH]c2ccccc12` (configuration not stated), for which the outcome in [1] was inactive.

`Cc1cc(-c2nc3ccccc3c(=O)n2C)cc2c1OC(N)=C(C#N)C2c1c(C)[nH]c2ccc(Cl)cc12` (configuration not stated): the Activity in data set [1] was 25%; in data set [7] it was “Non-Toxic”; in data set [8], “Toxic”. The outcome in [4] and in data set [6] was Active. The outcome in data set [5] and in data set [9] was inactive.

As for `Cc1[nH]c2ccccc2c1C1C(C#N)=C(N)Oc2c(C(C)C)cc(-c3nc4ccccc4c(=O)n3C)cc21` (configuration not stated), the Activity in data set [1] is 1%.

With `CCc1cc(-c2nc3ccccc3c(=O)n2C)cc2c1OC(N)=C(C#N)C2c1c(C)[nH]c2ccccc12` (configuration not stated), the Activity in [1] worked out at 7%.

For `CCn1c(-c2cc3c(c(C(C)(C)C)c2)OC(N)=C(C#N)C3c2c(C)[nH]c3ccccc23)nc2ccccc2c1=O` (configuration not stated), the Activity in data set [1] came out at 9%.

As for `Cc1[nH]c2ccc(Cl)cc2c1C1C(C#N)=C(N)Oc2c(C(C)C)cc(-c3nc4ccccc4c(=O)n3C)cc21` (configuration not stated), in data set [1], the Activity came out at 5%.

`CCCc1cc(-c2nc3ccccc3c(=O)n2C)cc2c1OC(N)=C(C#N)C2c1c(C)[nH]c2ccc(Cl)cc12` (configuration not stated): in data set [1], the Activity was determined as 12%.

With `COc1ccc2[nH]c(C)c(C3C(C#N)=C(N)Oc4c3cc(-c3nc5ccccc5c(=O)n3C)cc4C(C)(C)C)c2c1` (configuration not stated), the Activity is listed as 19% in data set [1]; “Non-Toxic” in [7]; “Toxic” in data set [8]; 20% in data set [13]; 10% in data set [14]. Besides, the outcome in data set [4], in data set [11] and in data set [12] was Active. Also, in data set [5], the outcome was inactive.

With `CCc1cc(-c2nc3ccccc3c(=O)[nH]2)cc2c1OC(N)=C(C#N)C2c1c(C)[nH]c2ccccc12` (configuration not stated), in [1], the outcome was inactive.

`Cc1cc(-c2nc3ccccc3c(=O)n2C)cc2c1OC(N)=C(C#N)C2c1c(C)[nH]c2ccccc12` (configuration not stated): the outcome in data set [1] was inactive.

On to `Cc1[nH]c2ccc(Cl)cc2c1C1C(C#N)=C(N)Oc2c1cc(-c1nc3ccccc3c(=O)[nH]1)cc2C(C)(C)C` (configuration not stated), for which the Activity in data set [1] is 2%.

Take `CCc1cc(-c2nc3ccccc3c(=O)n2C)cc2c1OC(N)=C(C#N)C2c1c(C)[nH]c2ccc(OC)cc12` (configuration not stated): in data set [1], the Activity stood at 2%.

`COc1ccc2[nH]c(C)c(C3C(C#N)=C(N)Oc4c(C)cc(-c5nc6ccccc6c(=O)n5C)cc43)c2c1` (configuration not stated): the Activity in data set [1] amounted to 13%.

For the compound `N#CC1=Cc2ccccc2OC1N` (configuration not stated), the Activity in data set [1] is on record as 18%.

On to `CCn1c(-c2cc3c(c(C(C)(C)C)c2)OC(N)=C(C#N)C3c2c(C)[nH]c3ccc(OC)cc23)nc2ccccc2c1=O` (configuration not stated), for which the Activity in data set [1] was 1%.

Consider `CCn1c(-c2cc(C)c3c(c2)C(c2c(C)n(C)c4ccccc24)C(C#N)=C(N)O3)nc2ccccc2c1=O` (configuration not stated), for which, in [1], the Activity was 14%.

Consider `CCn1c(C)nc2ccccc2c1=O`, for which the Activity in data set [1] was found to be 1%. Besides, the outcome in data set [10], in data set [2] and in [3] was inactive.

As for `COc1ccc2[nH]c(C)c(C3C(C#N)=C(N)Oc4c3cc(-c3nc5ccccc5c(=O)[nH]3)cc4C(C)(C)C)c2c1` (configuration not stated), the result in [1] was inactive.

As for `CCc1cc(-c2nc3ccccc3c(=O)n2C)cc2c1OC(N)=C(C#N)C2c1c(C)[nH]c2ccc(Cl)cc12` (configuration not stated), the Activity in data set [1] was found to be 1%.

Take `CCn1c(-c2cc(C)c3c(c2)CC(C#N)=C(N)O3)nc2ccccc2c1=O`: the result in data set [1], in data set [2] and in [3] was inactive.

As to `Cc1[nH]c2ccccc2c1C1C(C#N)=C(N)Oc2c1cc(-c1nc3ccccc3c(=O)n1C)cc2C(C)(C)C` (configuration not stated), the result in data set [1] was inactive.

For `CCn1c(-c2cc(C)c3c(c2)C(c2c(C)n(CC)c4ccccc24)C(C#N)=C(N)O3)nc2ccccc2c1=O` (configuration not stated), the outcome in [1] was inactive.

For the compound `CCCc1cc(-c2nc3ccccc3c(=O)n2C)cc2c1OC(N)=C(C#N)C2c1c(C)[nH]c2ccc(OC)cc12` (configuration not stated), the Activity in [1] stood at 11%. In addition, the “fold change (FC)” value in data set [15] is reported as 3.

In the case of `COc1ccc2[nH]c(C)c(C3C(C#N)=C(N)Oc4c(C(C)C)cc(-c5nc6ccccc6c(=O)n5C)cc43)c2c1` (configuration not stated), the result in [1] was inactive.

With `CCCc1cc(-c2nc3ccccc3c(=O)n2CC)cc2c1OC(N)=C(C#N)C2c1c(C)[nH]c2ccccc12` (configuration not stated), in data set [1], the Activity was found to be 12%.
